1 compound from patent publication US9896482B2, “Beta hairpin peptides having antiviral properties against Dengue virus” (CENTRO DE INGENIERÍA GENÉTICA Y BIOTECNOLOGÍA, priority 2014, dated 2018) can be followed below.

The subject of test [1] is DENV serotype 2 (NIBSC code S16803). As to the kind of experiment: Plaque reduction assay in Vero cells, DENV2. The test is classed as cell-based, Dengue virus. The method, then: (§1) The cells were grown in 24 well plates until the monolayer reached approximately 90% confluence, after which they were washed twice with MEM medium without Fetal Bovine Serum (FBS). Then, peptide dilutions were added and the cell-peptide mixtures were incubated typically for 1 hour at 37° C., followed by the addition of a DENV serotype 2 preparation (NIBSC code S16803) at a multiplicity of infection (m.o.i.) of 0.001. The cells were then incubated for 1 hour at 37° C., and once the period of incubation with the viral inoculum concluded, were washed again to remove unbound virions and incubated for 5 days at 37° C. in high density medium (MEM supplemented with non-essential amino acids, 1% FBS, 1% carboxymethylcellulose) in order to let viral plaques form. Afterwards, the cells were stained with 0.1% Naphtol Blue Black in 0.15 M sodium acetate. Two replicates per experimental point were used in each assay, and three independent determinations were performed for each sample.
Next, it was decided to compare the antiviral activity of peptides PHB4 and HDIII3CL against all four DENV serotypes, with the objective of comparing their respective IC50 values. This comparison was performed with plaque reduction assays on Vero cells, adding the viral inoculum for each serotype (DENV1, NIBSC code West Pac 74, DENV2, NIBSC, code S16803; DENV3, NIBSC, code CH53489; DENV 4, NIBSC code TVP360) at a m.o.i. of 0.001.

Test [2] deals with DENV1 (NIBSC code West Pac 74). As to the kind of experiment: Plaque reduction assay in Vero cells, DENV1. The format is cell-based, Dengue virus. Conditions: m.o.i. 0.001, read-out: Antiviral activity IC50 vs DENV1. The method, then:
as §1
Next, it was decided to compare the antiviral activity of peptides PHB4 and HDIII3CL against all four DENV serotypes, with the objective of comparing their respective IC50 values. […]
Background: Plaques are areas of infected cells; plaque reduction assays count them against a control.

Where two headings read alike, the source gives them in different places. Where a SMILES comes first, the peptide text is derived from it. Bridges are numbered along the chain shown (N, C = ends). [ ]: non-standard residue; d: D form.

As a reminder, the IC50 is the concentration that gives 50% inhibition. As for `CC[C@H](C)[C@@H]1NC(=O)[C@H](Cc2ccccc2)NC(=O)[C@H](Cc2c[nH]c3ccccc23)NC(=O)[C@H](CC(N)=O)NC(=O)[C@H](C(C)C)NC(=O)[C@H](CCCCN)NC(=O)[C@H](Cc2c[nH]c3ccccc23)NC(=O)[C@H](CCCCN)NC(=O)[C@H]2CCCN2C(=O)[C@H](CCCNC(=N)N)NC(=O)[C@H]([C@@H](C)O)NC(=O)[C@H](Cc2c[nH]c3ccccc23)NC(=O)[C@H](Cc2ccc(O)cc2)NC(=O)[C@H](C(C)C)NC(=O)[C@H](CCC(=O)O)NC(=O)[C@H]([C@@H](C)CC)NC(=O)[C@@H](N)CSSC[C@@H](C(=O)N[C@@H](CCCCN)C(=O)N[C@@H](CCCCN)C(=O)N[C@@H](CCCCN)C(N)=O)NC1=O` [PHB4] (H-CIEVYWTR[dP]KWKVNWFICKKK-NH2; disulfide 1-18; N-terminus assumed), the IC50 was found to be 3 nM in test [1] (DENV2, plaque reduction, NA = no detectable activity at concentrations lower than or equal to 100 μM, read-out: IC50, antiviral activity in Vero cells (50% inhibitory activity)); 3 nM in test [1] (Vero cells, m.o.i. 0.001, read-out: Antiviral activity IC50 vs DENV2); 2 nM in test [2]. Moreover, the “Fold more potent than peptide HDIII3CL” value in test [1] (depending on serotype, DENV1-4, Vero cells) is 4000- to 7500 fold.
